The values that follow come from PMC4990076 (MedChemComm, 2016).

The first test relates to Ras localization.
Experiment: not given
The following applies: at micromolar concentrations; cited from earlier work.
With `CCCCCCCCn1cc(CC(N)=O)c2cc(-c3cccc(C)c3)ccc21` [Cysmethynil], the “Ras mislocalization in cells” value was “causes Ras mislocalization”.

In another test the target is human Icmt (hIcmt) (Homo sapiens, UniProt O60725). Kind of test: in vitro vapor diffusion assay for hIcmt activity. The test is classed as biochemical.
human Icmt (hIcmt), sequence (O60725 whole entry, the tested form may be a part): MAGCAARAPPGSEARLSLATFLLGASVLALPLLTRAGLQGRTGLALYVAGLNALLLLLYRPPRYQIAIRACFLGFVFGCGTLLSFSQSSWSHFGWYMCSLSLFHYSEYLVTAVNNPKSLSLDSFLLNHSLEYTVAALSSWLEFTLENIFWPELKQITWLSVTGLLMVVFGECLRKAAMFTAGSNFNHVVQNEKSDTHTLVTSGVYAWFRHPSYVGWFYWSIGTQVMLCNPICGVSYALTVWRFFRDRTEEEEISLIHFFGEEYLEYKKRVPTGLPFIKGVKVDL
Conditions: not given
Take `c1ccc(C(=C2CCOCC2)c2ccc3ccccc3c2)cc1` [Compound 6]: the “hIcmt inhibitory activity (in words)” value was “inactive”.

With `c1ccc2cc(CC3CCOCC3)ccc2c1` [Compound 7], the “hIcmt inhibitory activity (in words)” value is “abolished activity”. Still for that read-out and setting: the value for `O=C(c1ccc2ccccc2c1)C1CCOCC1` [Compound 8] was “abolished activity”; that for `OC(c1ccccc1)(c1cccs1)C1CCOCC1` (centres unmarked) [Compound 9] was “inactive”.

`c1ccc(C(=C2CCOCC2)c2cccs2)cc1` [Compound 10]: the “hIcmt inhibitory activity (in words)” value was “inactive”. Still for that read-out and setting: the value for `c1csc(C(c2ccc3ccccc3c2)C2CCNCC2)c1` (centres unmarked) [Compound 11] was “not active”; that for `CN1CCC(C(c2ccc3ccccc3c2)c2cccs2)CC1` (centres unmarked) [Compound 12] was “not active”.
